Assay results taken from the supplement of paper PMC10307832.

How the values were obtained:
Assay in all cases: relative viability (nuclei count vs DMSO), 5 days (fraction); higher = more cells survive
Lapatinib + Dasatinib = compound: CS(=O)(=O)CCNCc1ccc(-c2ccc3ncnc(Nc4ccc(OCc5cccc(F)c5)c(Cl)c4)c3c2)o1 [Lapatinib] + Cc1nc(Nc2ncc(C(=O)Nc3c(C)cccc3Cl)s2)cc(N2CCN(CCO)CC2)n1 [Dasatinib] (partner 0.075 µM)
Summary of the method: (§1)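 Each reported value is a median over duplicate plates. It expresses relative viability: treated-well nuclei count divided by vehicle-well nuclei count. Lung cancer cell lines in 1536-well plates were dosed by pin tool a day after seeding, alone with one drug or with a fixed anchor-drug dose plus five library-drug doses (not always all listed) in √10 steps, and nuclei were counted after 5 days.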

Lapatinib + Phenformin = compound: CS(=O)(=O)CCNCc1ccc(-c2ccc3ncnc(Nc4ccc(OCc5cccc(F)c5)c(Cl)c4)c3c2)o1 [Lapatinib] + N=C(N)NC(=N)NCCc1ccccc1 [Phenformin] (partner 250 µM)
Summary of the method: as §1

Wnt-C59 + Phenformin = compound: CC1=NC=CC(=C1)C2=CC=C(C=C2)CC(=O)NC3=CC=C(C=C3)C4=CN=CC=C4 [Wnt-C59] + N=C(N)NC(=N)NCCc1ccccc1 [Phenformin] (partner 250 µM)
Summary of the method: as §1

Wnt-C59 + Pictilisib = compound: CC1=NC=CC(=C1)C2=CC=C(C=C2)CC(=O)NC3=CC=C(C=C3)C4=CN=CC=C4 [Wnt-C59] + CS(=O)(=O)N1CCN(Cc2cc3nc(-c4cccc5[nH]ncc45)nc(N4CCOCC4)c3s2)CC1 [Pictilisib] (partner 1 µM)
Summary of the method: as §1

Cell Line	relative viability (Lapatinib + Dasatinib; first compound 0.02 µM)	relative viability (Lapatinib + Dasatinib; first compound 0.06325 µM)	relative viability (Lapatinib + Dasatinib; first compound 0.6325 µM)	relative viability (Lapatinib + Dasatinib; first compound 2 µM)	relative viability (Lapatinib + Phenformin; first compound 0.02 µM)	relative viability (Lapatinib + Phenformin; first compound 0.06325 µM)	relative viability (Lapatinib + Phenformin; first compound 0.6325 µM)	relative viability (Lapatinib + Phenformin; first compound 2 µM)	relative viability (Wnt-C59 + Phenformin; first compound 0.001 µM)	relative viability (Wnt-C59 + Phenformin; first compound 0.01 µM)	relative viability (Wnt-C59 + Phenformin; first compound 0.03162 µM)	relative viability (Wnt-C59 + Phenformin; first compound 0.1 µM)	relative viability (Lapatinib + Dasatinib; first compound 0.2 µM)	relative viability (Lapatinib + Phenformin; first compound 0.2 µM)	relative viability (Wnt-C59 + Pictilisib; first compound 0.001 µM)	relative viability (Wnt-C59 + Pictilisib; first compound 0.01 µM)	relative viability (Wnt-C59 + Pictilisib; first compound 0.03162 µM)	relative viability (Wnt-C59 + Pictilisib; first compound 0.1 µM)
NCI-H1623	0.541	0.491	0.578	0.21	0.546	0.494	0.659	0.261	0.582	0.562	0.607	0.572	–	–	–	–	–	–
NCI-H2087	–	0.609	0.988	0.854	–	0.354	0.552	0.406	0.504	0.416	0.547	0.465	0.874	0.485	0.94	0.816	0.819	0.907
NCI-H441	–	0.263	0.557	0.592	–	0.43	0.901	0.873	0.845	0.732	1.04	0.724	0.562	0.946	0.557	0.428	0.592	0.573
NCI-H1755	0.375	0.278	0.381	0.394	0.409	0.595	0.59	0.59	0.486	0.631	0.609	0.632	0.422	0.642	0.374	0.433	0.459	0.433
EKVX	–	0.321	0.384	0.196	0.185	0.218	0.235	0.146	0.225	0.216	0.216	0.241	0.423	0.242	0.428	0.362	0.394	0.344
IA-LM	–	–	–	–	–	–	–	–	–	–	–	–	–	–	0.271	0.251	0.337	0.375
A-427	–	0.664	0.745	0.692	–	0.279	0.317	0.367	0.334	0.338	0.407	0.384	0.825	0.346	0.756	0.554	0.717	0.799
NCI-H1299	–	–	–	–	–	–	–	–	–	–	–	–	–	–	0.739	0.476	0.756	0.793
NCI-H1993	0.564	–	0.516	0.563	0.597	–	0.583	0.556	0.49	–	0.472	0.514	0.55	0.509	0.979	0.833	0.902	0.84
NCI-H1651	0.443	0.284	0.476	0.406	0.35	0.25	0.308	0.374	0.344	0.345	0.377	0.332	0.386	0.34	0.601	0.584	0.541	0.561
LXF-289	0.0714	0.116	0.273	0.179	0.142	0.482	0.488	0.52	0.552	0.535	0.552	0.503	0.224	0.509	0.767	0.774	0.853	0.794
NCI-H23	–	–	0.762	0.738	–	–	0.805	0.761	0.842	0.663	0.907	0.749	0.688	0.792	0.426	0.454	0.467	0.423
LU99A	0.492	0.408	0.587	0.475	0.379	0.712	0.866	0.792	0.904	0.845	0.879	0.876	0.453	0.743	0.309	0.317	0.316	0.321
NCI-H1793	–	0.339	0.319	0.316	–	0.313	0.329	0.225	0.34	–	0.397	0.362	0.398	0.265	0.215	0.22	0.3	0.444
NCI-H2085	0.241	0.212	0.16	0.204	–	0.64	0.61	0.458	0.757	0.649	0.691	0.673	0.284	0.735	0.502	0.449	0.41	0.45
NCI-H2126	–	0.404	0.559	0.387	–	0.393	0.536	0.406	0.542	0.507	0.53	0.541	0.533	0.529	0.451	0.446	0.489	0.479
LCLC-103H	0.312	0.378	0.511	0.416	0.276	0.271	0.363	0.382	0.352	0.334	0.366	0.329	0.455	0.316	0.663	0.62	0.634	0.651
NCI-H2347	–	0.315	0.329	0.25	–	0.376	0.641	0.337	0.446	0.369	0.249	0.388	0.299	0.498	0.628	0.566	0.86	0.634
HCC-44	–	–	–	–	–	0.189	0.172	0.235	0.315	0.201	0.153	0.23	–	0.211	0.597	0.639	0.621	0.772
NCI-H1703	–	–	–	–	–	–	–	–	–	–	–	–	–	–	0.22	0.218	0.324	0.273
A549	–	–	–	–	–	–	0.137	0.112	0.213	0.144	0.253	0.169	–	0.192	0.534	0.541	0.408	0.484
NCI-H2342	0.262	0.293	0.303	0.263	0.511	0.557	0.51	0.489	0.616	0.63	0.756	0.746	0.301	0.574	–	–	–	–
SW 900	–	0.435	0.595	0.373	–	0.484	0.554	0.531	0.633	0.607	0.555	0.574	0.479	0.554	–	–	–	–
